Data set [1] can be described thus: Test for metabolic stability (human liver microsomes). Type of data set: in vitro ADME. Particulars: pH 7.4; human liver microsomes 1.0 mg/mL, 1 mM NADPH, test compound 5 μM, 37° C. The procedure: Test for Metabolic Stability
The test for metabolic stability was performed by Absorption System, Exton, Pa. 19341, USA.
The test compound (DPPI inhibitor) was dissolved in 100% DMSO at a concentration of 10 mM. The reaction mixture, consisted of Mouse or Human Liver Microsomes (1.0 mg/mL), 1 mM NADPH, 100 mM Potassium Phosphate, pH 7.4, 10 mM Magnesium Chloride and test compound at a concentration of 5 μM.
An aliquot of the reaction mixture (without cofactors) was incubated in a shaking water bath at 37° C. for 3 minutes. Another aliquot of the reaction mixture was prepared as the negative control. The test compound was added into both the reaction mixture and the negative control at a final concentration of 5 μM.
The reaction was initiated by the addition of NADPH to 1 mM (not into the negative controls) and then incubated in a shaking water bath at 37° C. Aliquots (100 μL) were withdrawn at 0, 10, 20, 30, and 60 minutes or at 0, 15, 30 and 60 minutes and combined with 900 μL of ice-cold 50/50 acetonitrile/dH2O to terminate the reaction. A control (testosterone) was run simultaneously with the test compound in a separate reaction. […] The elimination half-lives associated with the disappearance of the test and control compounds were determined to compare their relative metabolic stability.
(In general: Liver microsomes are vesicles of endoplasmic reticulum, rich in cytochrome P450 enzymes.)

For data set [2], the target named is T1, DPPI (Homo sapiens, UniProt P53634). As to the kind of experiment: Human DPPI inhibition assay 2. Type of data set: biochemical. Further details: purchased UNIZYME Laboratories A/S. Particulars: substrate Gly-Phe-paranitroanilide 750 μM, pH 4.5, 37° C. The procedure: Human DPPI Inhibition Assay 2
Using this assay, the IC50 value of the compound of the invention may be determined using Gly-Phe-paranitroanilide as a DPPI specific substrate.
Assay buffer: 20 mM citric acid (2.1 g citric acid), 150 mM NaCl (4.4 g NaCl) and 2 mM EDTA (370 mg EDTA) was dissolved in 500 mL H2O, and pH was adjusted to 4.5 with HCl.
Substrate: Gly-Phe-paranitroanilide (Sigma Aldrich; Cat. No G0142) was used as the substrate for determination of IC50 values. Km was 2.2 mM. The substrate was solubilized in dimethylformamid to give a 0.2-0.5 M stock solution, which was then further diluted with stirring in assay buffer to a final concentration of 1 mM.
DPPI: Human DPPI (obtained from UNIZYME Laboratories A/S, DK-2970 Hørsholm, Denmark) was stored at −20° C. in a buffer containing 2.5 mM Na-phosphate, 150 mM NaCl, 2 mM cysteamine, 50% glycerol, pH 7.0 at a concentration of 2.2 mg/mL (≈12 μM). This stock solution was diluted 800-3200 times in assay buffer to a concentration of about 4-15 nM.
Assay conditions: The assay was performed in 96-well plates. […] The absorption was measured at 405 nm at 37° C. for every 90 seconds for 12 minutes or every 20 seconds for 4 minutes. […] IC50 was determined using a 4-parameter logistic equation in a non-linear curve fitting routine.

For data set [3], the target named is T1, DPPI. As to the kind of experiment: Cell based DPPI inhibition assay 2. Details: endogenous in cells; host or cells: U937 cells. The settings on record: neutrophil elastase activity in U937 cells grown 48 hours with inhibitor. The procedure:
Cell Based DPPI Inhibition Assay 2
Using the cell based assay described below, the biological activity of the compounds of the invention or other DPPI inhibitors may be determined.
Neutrophil elastase enzymatic activities in U937 cells grown in the presence of DPPI inhibitors were measured by methods modified from Méthot N; Rubin J; Guay D; Beaulieu C; Ethier D; Reddy T J; Riendeau D and Percival M D (2007) J Biol Chem, 282, 20836-20846.
U937 cells were propagated in culture media (RPMI 1640, supplemented with 10% FBS, 10 mM Hepes, 1 mM sodium pyrovate, 100 units/ml of each of penicillin and streptomycin). Cells were seeded in 12-well plates at ≈0.2×10^6 cells/ml in volumes of 1.5 ml per well in the presence of no or increasing concentrations of DPPI inhibitor. 12 points in duplicate in the range of 0.01 nM to 10 μM inhibitor were tested. […]
The activity of neutrophil elastase was determined by measuring the enzymatic release of chromogenic p-nitroaniline from the substrate MetOSuc-Ala-Ala-Pro-Val-pNA, which leads to an increase in absorbance at 405 nm. Assays were carried out in 96-well plates in a final volume of 200 μL at 37° C., and absorbance was measured 8 times during 21 minutes using a plate reader. IC50 was determined using a 4-parameter logistic equation in a non-linear curve fitting routine.

Each structure is given as a SMILES string. A value given as a limit tells only on which side of the number the result lay.

T1 sequence (P53634 231-394 limits assumed): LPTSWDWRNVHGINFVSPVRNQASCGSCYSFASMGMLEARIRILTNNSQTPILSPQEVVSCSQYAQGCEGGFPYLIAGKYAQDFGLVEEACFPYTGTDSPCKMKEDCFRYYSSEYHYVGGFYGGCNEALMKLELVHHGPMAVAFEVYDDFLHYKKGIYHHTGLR
T1 sequence (P53634 25-134 limits assumed): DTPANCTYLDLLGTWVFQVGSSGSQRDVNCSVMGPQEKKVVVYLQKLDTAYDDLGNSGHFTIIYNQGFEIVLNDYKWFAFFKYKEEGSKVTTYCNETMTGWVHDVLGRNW
T1 sequence (P53634 395-463 limits assumed): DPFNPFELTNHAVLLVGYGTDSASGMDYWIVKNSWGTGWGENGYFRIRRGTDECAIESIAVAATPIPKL

Molecule `CN1CCN(Cc2ccc(-c3ccc(C[C@@H](C#N)NC(=O)C4(N)CCOCC4)c(F)c3)cc2)CC1` [PZ1101, (S)-4-amino-N-(1-cyano-2-(3-fluoro-4′-((4-methylpiperazin-1-yl)methyl)-[1,1′-biphenyl]-4-yl)ethyl)tetrahydro-2H-pyran-4-carboxamide] registered a half-life at 5 μM in data set [1] of over 2 h. For the same molecule, the IC50 at DPPI [2] was about 6 nM; against DPPI [3] it was about 2.5 nM.

As a reminder, the half-life is how long it takes for the measured level to halve. A higher half-life goes with slow loss. As a reminder, the IC50 is the midpoint of a concentration-inhibition curve.
